According to patent publication US11919932B2, “HMGN partial peptide and cancer therapy using the same” (The University of Tokyo, priority 2018, dated 2024):

Key:
[1] = system: Colon26 large intestine cancer cells; assay: Colon26 tumor-bearing mice, HMGN peptide in combination with anti-PD-L1 antibody, tumor volume; format: in vivo, mouse; conditions: for anti-tumor effect compared with Pep1 (FIG. 11) / anti-tumor effect, tumor volume 24 days after tumor implantation (FIG. 11): same molar dose as 300 ng of Pep1; for anti-tumor effect, tumor volume 24 days after tumor implantation (FIG. 11): vs anti-PD-L1 antibody single administration group; for tumor growth (time-dependent change in tumor volume, FIG. 7): Pep1 60 and 300 ng/mouse, other peptides three equimolar doses, common ratio 5 (Pep1core 8 to 200 ng/mouse); for growth of Colon26 solid tumor, tumor volume 26 days after tumor cell implantation (FIG. 5, FIG. 6): peptide equimolar to Pep1 300 ng/mouse (two doses, common ratio 5, for Pep1ΔN2 and Pep1 mutant), vs anti-PD-L1 alone
Description: (§1) Seven-week-old male BALB/c mice were used in groups of 8 mice, and Colon26 large intestine cancer cells were subcutaneously transplanted into the right flank at 2×10^5 cells/mouse.
(§2) An anti-mouse PD-L1 antibody (clone 10F.9G2) and an anti-mouse CD4 depleting antibody (clone GK1.5) were purchased from BioXcell.
(§3) The HMGN peptide was intraperitoneally administered at a dose described below four times in total at 9, 14, 17 and 20 days after tumor cell implantation. The anti-mouse PD-L1 antibody was intraperitoneally administered at 200 μg/mouse four times in total at 4, 8, 14 and 18 days after tumor cell implantation. The anti-mouse CD4 antibody was intraperitoneally administered at a dose of 200 μg/mouse twice in total at 5 and 9 days after tumor cell implantation. The long diameter and short diameter of the solid tumor were measured every 3 to 4 days, and tumor volume was calculated by the following calculation formula. Tumor volume (mm^3)=(Long diameter; mm)×(Short diameter; mm)^2×0.5236

[2] = system: Colon26 large intestine cancer cells; assay: Colon26 tumor-bearing mice, HMGN peptide in combination with anti-CD4 antibody, tumor volume; format: in vivo; conditions: Pep1 800 ng/mouse + anti-CD4 antibody 200 μg/mouse
Description: as §1, §2, §3
The partial peptide of human HMGN1, Pep1 (800 ng/mouse), was administered to Colon26 tumor-bearing mice in combination with an anti-CD4 antibody (200 μg/mouse), and the anti-tumor effect was investigated.

[3] = system: Colon26 large intestine cancer cells; assay: Colon26 tumor-bearing mice, HMGN peptide single administration, tumor volume; format: in vivo, mouse; conditions: Pep1 alone; vs control group
Method: as §1, §3
A partial fragment (human HMGN1 NBD peptide 1; Pep1, SEQ ID NO: 3) of human HMGN1 (SEQ ID NO: 17) corresponding to mPep1 was prepared and administered to Colon26 tumor-bearing mice alone or in combination with an anti-PD-L1 antibody (200 μg/mouse), and the anti-tumor effect was investigated.

[4] = + anti-PD-L1 antibody 200 μg/mouse

HMGN5 NBD-peptide (GQGDMRQEPKRRSARLSAMLVPVTPEVKPKRTSSSRKMKTKSD; Human HMGN5 NBD-peptide (N5Pep)) [PepN5, partial region containing NBD of human HMGN5]
anti-tumor effect compared with Pep1 (FIG. 11) ([1]; + anti-PD-L1 antibody): at the same level as Pep1
anti-tumor effect, tumor volume 24 days after tumor implantation (FIG. 11) ([1]; + anti-PD-L1 antibody): significant anti-tumor effects

Human HMGN1 NBD-peptide 1 (SSAEGAAKEEPKRRSARLSAKPPAKVEAKPKKAAAKD; Human HMGN1 NBD-peptide 1 (Pep1))
anti-tumor effect (FIG. 3) ([1]; 3 ng/mouse and 30 ng/mouse, + anti-PD-L1 antibody): effective
tumor growth (time-dependent change in tumor volume, FIG. 7) [1, 4]: synergistically suppressed tumor growth
tumor growth (FIG. 3, FIG. 4) ([1]; Pep1 + anti-PD-L1 antibody 200 μg/mouse): synergistically suppressed tumor growth
potency difference in the anti-tumor action between PepO and Pep1 ([1]; both + anti-PD-L1 antibody): ≥ 300 times
growth of Colon26 solid tumor, tumor volume 26 days after tumor cell implantation (FIG. 5, FIG. 6) [1, 4]: significantly suppressed
Colon26 solid tumor growth (FIG. 12, FIG. 13; tumor volume 24 days after implantation) [2]: synergistically suppressed Colon26 solid tumor growth
growth of Colon26 solid tumor, tumor volume 23 days after tumor implantation (FIG. 3) [3]: significantly suppressed growth of Colon26 solid tumor in a dose-dependent manner

Human HMGN1 NBD-peptide 1 core (EPKRRSARLSAKPPAKVEAKPKK; Human HMGN1 NBD-peptide1 core (Pep1core)) [10th to 32nd residues of Pep1]
tumor growth (time-dependent change in tumor volume, FIG. 7) [1, 4]: suppressed in a dose-dependent manner
tumor volume 27 days after implantation, difference from anti-PD-L1 antibody single administration group (FIG. 8) ([1]; doses of 40 and 200 ng/mouse, + anti-PD-L1 antibody): significant difference was observed

Human HMGN1 NBD-peptide 1 mutant (SAEGAAKEEPKDDSADLSAKPPAKVEAKPKKAAAKD; Human HMGN1 NBD-peptide 1 mutant (Pep1 mutant)) [R→D mutant of Pep1, N-terminal 1 residue removed]
growth of Colon26 solid tumor, tumor volume 26 days after tumor cell implantation (FIG. 5, FIG. 6) [1, 4]: same anti-tumor action as Pep1

Human HMGN1 NBD-peptide 1 Δ C1 (SSAEGAAKEEPKRRSARLSAKPPAKVEAKPKK; Human HMGN1 NBD-peptide 1 delta-C1 (Pep1 delta-C1)) [Pep1ΔC1, C-terminal 5 residues of Pep1 removed]
complete regression of solid tumors ([1]; dose of 53 ng, + anti-PD-L1 antibody): 1 case
complete regression of solid tumors ([1]; doses of 11 and 265 ng/mouse, + anti-PD-L1 antibody): 3 cases out of 8 cases
growth of Colon26 solid tumor, tumor volume 26 days after tumor cell implantation (FIG. 5, FIG. 6) [1, 4]: significantly suppressed

Human HMGN1 NBD-peptide 1 Δ C2 (SSAEGAAKEEPKRRSARLSAKPPAKVEA; Human HMGN1 NBD-peptide 1 delta-C2 (Pep1 delta-C2)) [Pep1ΔC2, C-terminal 9 residues of Pep1 removed]
growth of Colon26 solid tumor, tumor volume 26 days after tumor cell implantation (FIG. 5, FIG. 6) [1, 4]: ineffective

Human HMGN1 NBD-peptide 1 Δ C (SSAEGAAKEEPKRRSARLSAKPPA; Human HMGN1 NBD-peptide 1 delta-C (Pep1 delta-C)) [Pep1 ΔC, C-terminal 13 residues of Pep1 removed]
growth of Colon26 solid tumor, tumor volume 26 days after tumor cell implantation (FIG. 5, FIG. 6) [1, 4]: anti-tumor effect of the peptide was lost

Human HMGN1 NBD-peptide 1 Δ N1 (AAKEEPKRRSARLSAKPPAKVEAKPKKAAAKD; Human HMGN1 NBD-peptide 1 delta-N1 (Pep1 delta-N1)) [Pep1ΔN1, N-terminal 5 residues of Pep1 removed]
Colon26 solid tumor growth (FIG. 5, FIG. 6) ([1]; doses of 53 and 267 ng/mouse, + anti-PD-L1 antibody 200 μg/mouse): significantly suppressed

Human HMGN1 NBD-peptide 1 Δ N2 (EPKRRSARLSAKPPAKVEAKPKKAAAKD; Human HMGN1 NBD-peptide 1 delta-N2 (Pep1 delta-N2)) [Pep1ΔN2, N-terminal 9 residues of Pep1 removed]
tumor growth (time-dependent change in tumor volume, FIG. 7) [1, 4]: synergistic effect
solid tumors completely regressed ([1]; dose of 9.4 ng/mouse, + anti-PD-L1 antibody): 4 cases out of 8 cases
growth of Colon26 solid tumor, tumor volume 26 days after tumor cell implantation (FIG. 5, FIG. 6) [1, 4]: similarly suppressed solid tumors

Human HMGN1 NBD-peptide 1 Δ N3 (SARLSAKPPAKVEAKPKKAAAKD; Human HMGN1 NBD-peptide 1 delta-N3 (Pep1 delta-N3)) [Pep1ΔN3, N-terminal 14 residues of Pep1 removed]
growth of Colon26 solid tumor, tumor volume 26 days after tumor cell implantation (FIG. 5, FIG. 6) [1, 4]: ineffective

Human HMGN1 peptide O (KEEPKRRSARLSAKPPAKVEAKPKKAAAKDKSSDKK; Human HMGN1 peptide O (PepO)) [known HMGN peptide of U.S. Pat. No. 8,227,417, reference compound]
complete regression of solid tumors ([1]; 954 ng/mouse, + anti-PD-L1 antibody 200 μg/mouse): 3 mice
anti-tumor effect, tumor volume 24 days after tumor implantation (FIG. 9, FIG. 10) ([1]; dose of 318 ng/mouse (equimolar to Pep1 300 ng/mouse), + anti-PD-L1 antibody 200 μg/mouse): no anti-tumor effect
tumor growth, tumor volume 24 days after tumor implantation (FIG. 9, FIG. 10) ([1]; triple dose of 954 ng/mouse, + anti-PD-L1 antibody 200 μg/mouse): significantly suppressed tumor growth

Human HMGN2 NBD-peptide [PepN2]
anti-tumor effect compared with Pep1 (FIG. 11) ([1]; + anti-PD-L1 antibody): at the same level as Pep1
anti-tumor effect, tumor volume 24 days after tumor implantation (FIG. 11) ([1]; + anti-PD-L1 antibody): significant anti-tumor effects

Human HMGN3 NBD-peptide [PepN3]
anti-tumor effect, tumor volume 24 days after tumor implantation (FIG. 11) ([1]; + anti-PD-L1 antibody): no anti-tumor effect

Human HMGN4 NBD-peptide [PepN4]
anti-tumor effect compared with Pep1 (FIG. 11) ([1]; + anti-PD-L1 antibody): at the same level as Pep1
anti-tumor effect, tumor volume 24 days after tumor implantation (FIG. 11) ([1]; + anti-PD-L1 antibody): significant anti-tumor effects

mouse HMGN1 NBD-peptide 2 (VQIKGKRGAKGKQADVADQQTTELPAENGETENQSPASEE; mouse HMGN1 NBD-peptide 2 (mPep2)) [region at the C-terminal side of mouse HMGN1 NBD]
tumor volume 24 days after Colon26 tumor cell implantation (FIG. 2) ([1]; doses of 30, 300 ng/mouse (mPep2 same molar number), + anti-PD-L1 antibody, vs control group): ineffective
tumor growth (time-dependent change in tumor volume, FIG. 1) ([1]; mPep1 30 or 300 ng/mouse, mPep2 33 or 330 ng/mouse, i.p. four times, + anti-PD-L1 antibody 200 μg/mouse): no combined effect
